Among the data in patent publication US9073853B2, “Cycloalkane carboxylic acid derivatives as CXCR3 receptor antagonists” (Sanofi, priority 2011, dated 2015) are IC50 values, retold here.

Sequence of human CXCR3-A receptor (P49682 whole entry): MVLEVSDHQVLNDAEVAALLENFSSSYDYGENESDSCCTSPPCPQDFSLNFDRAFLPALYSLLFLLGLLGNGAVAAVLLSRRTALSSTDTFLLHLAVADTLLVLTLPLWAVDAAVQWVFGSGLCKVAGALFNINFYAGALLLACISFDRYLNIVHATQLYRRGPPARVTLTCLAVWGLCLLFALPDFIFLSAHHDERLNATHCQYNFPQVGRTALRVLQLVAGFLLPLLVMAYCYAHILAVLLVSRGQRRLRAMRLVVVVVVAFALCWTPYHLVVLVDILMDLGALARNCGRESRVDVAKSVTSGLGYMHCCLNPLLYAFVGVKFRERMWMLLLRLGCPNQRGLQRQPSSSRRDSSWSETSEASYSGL

This assay concerns the target human CXCR3-A receptor (Homo sapiens (Human), UniProt P49682). In words: 125I-CXCL10 competition radioligand binding assay. To be noted: displacement of 125I-CXCL10 from membranes of CHO cells expressing human recombinant CXCR3-A. Summed up:
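Membranes from a recombinant cell line expressing human CXCR3-A (10-20 μg protein) were incubated with 125I-CXCL10 and test compound for 60 min at 25° C, then filtered onto PEI-soaked GF/B filters and gamma-counted. IC50 and Hill slope came from four-parameter nonlinear fitting of competition curves.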
Background: Loss of bound radioactivity is the signal in a displacement assay; it reports binding, not function.
As a reminder, the IC50 is the concentration needed to halve the response being measured. As to `CCc1cc(CN(C[C@H]2CC[C@H](C(=O)O)CC2)[C@H]2CCc3cc(Cl)ccc32)ccc1OCCN1C(=O)CCC1=O` [Example 71, trans-4-[(((S)-5-Chloro-indan-1-yl)-{4-[2-(2,5-dioxo-pyrrolidin-1-yl)-ethoxy]-3-ethyl-benzyl}-amino)-methyl]-cyclohexanecarboxylic acid], the IC50 came out at 176 nM. For `COc1cc(CN(C[C@H]2CC[C@H](C(=O)O)C2)[C@@H](C)c2ccc3c(c2)CCO3)ccc1OCCN1C(=O)CCC1=O` [Example 110, (1S,3S)-3-[([(S)-1-(2,3-Dihydro-benzofuran-5-yl)-ethyl]-{4-[2-(2,5-dioxo-pyrrolidin-1-yl)-ethoxy]-3-methoxy-benzyl}-amino)-methyl]-cyclopentanecarboxylic acid] the value was 525 nM; for `COc1cc(CN(C[C@@H]2CC[C@H](C(=O)O)C2)[C@@H](C)c2ccc(Cl)cc2)ccc1OCCN1C(=O)CCC1=O` [Example 102, (1S,3R)-3-[([(S)-1-(4-Chloro-phenyl)-ethyl]-{4-[2-(2,5-dioxo-pyrrolidin-1-yl)-ethoxy]-3-methoxy-benzyl}-amino)-methyl]-cyclopentanecarboxylic acid], 154 nM; for `COc1cc(CN(C[C@H]2CC[C@H](C(=O)O)CC2)[C@H]2CCc3c2ccc(Cl)c3F)ccc1OCCN1C(=O)CCC1=O` [Example 148, trans-4-[(((S)-5-Chloro-4-fluoro-indan-1-yl)-{4-[2-(2,5-dioxo-pyrrolidin-1-yl)-ethoxy]-3-methoxy-benzyl}-amino)-methyl]-cyclohexanecarboxylic acid], 26 nM. For `COc1cc(CN(C[C@H]2CC[C@H](C(=O)O)CC2)[C@H]2CCc3cc(Cl)c(Cl)cc32)ccc1OCCN1C(=O)CCC1=O` [Example 74, trans-4-[(((S)-5,6-Dichloro-indan-1-yl)-{4-[2-(2,5-dioxo-pyrrolidin-1-yl)-ethoxy]-3-methoxy-benzyl}-amino)-methyl]-cyclohexanecarboxylic acid] the value was 350 nM. `COc1cc(CN(C[C@H]2CC[C@H](C(=O)O)CC2)C(C)c2ccc3c(c2)CCO3)ccc1OCCN1C(=O)CSC1=O` (stereo partly drawn) [Example 15, trans-4-[([1-(2,3-Dihydro-benzofuran-5-yl)-ethyl]-{4-[2-(2,4-dioxo-thiazolidin-3-yl)-ethoxy]-3-methoxy-benzyl}-amino)-methyl]-cyclohexanecarboxylic acid]: the IC50 was 37 nM. For `COc1cc(CN(C[C@H]2CC[C@H](C(=O)O)CC2)C2CCc3cc(Cl)ccc32)ccc1OCCN1C(=O)CSC1=O` (stereo partly drawn) [Example 24, trans-4-[((5-Chloro-indan-1-yl)-{4-[2-(2,4-dioxo-thiazolidin-3-yl)-ethoxy]-3-methoxy-benzyl}-amino)-methyl]-cyclohexanecarboxylic acid] the value was 58 nM; for `CCC(c1ccc(Cl)cc1)N(Cc1ccc(OCCN2C(=O)CN(C)C2=O)c(C)c1)C[C@H]1CC[C@H](C(=O)O)CC1` (stereo partly drawn) [Example 70, trans-4-[([1-(4-Chloro-phenyl)-propyl]-{3-methyl-4-[2-(3-methyl-2,5-dioxo-imidazolidin-1-yl)-ethoxy]-benzyl}-amino)-methyl]-cyclohexanecarboxylic acid], 180 nM. For `COc1cc(CN(C[C@H]2CC[C@H](C(=O)O)CC2)C2CCc3cc(Cl)ccc32)ccc1CCCN1C(=O)CN(C)C1=O` (stereo partly drawn) [Example 50, trans-4-[((5-Chloro-indan-1-yl)-{3-methoxy-4-[3-(3-methyl-2,5-dioxo-imidazolidin-1-yl)-propyl]-benzyl}-amino)-methyl]-cyclohexanecarboxylic acid] the value was 1240 nM; for `COc1cc(CN(C(C)c2ccc3c(c2)CCO3)[C@H]2C[C@H](C(=O)O)C2)ccc1OCCn1c(=O)ccn(C)c1=O` (stereo partly drawn) [Example 120, trans-3-([1-(2,3-Dihydro-benzofuran-5-yl)-ethyl]-{3-methoxy-4-[2-(3-methyl-2,6-dioxo-3,6-dihydro-2H-pyrimidin-1-yl)-ethoxy]-benzyl}-amino)-cyclobutanecarboxylic acid], 2900 nM.

`Cc1cc(CN(C[C@H]2CC[C@H](C(=O)O)CC2)[C@H]2CCc3c2ccc(Cl)c3F)ccc1OCCN1C(=O)CN(C)C1=O` [Example 157, trans-4-[(((S)-5-Chloro-4-fluoro-indan-1-yl)-{3-methyl-4-[2-(3-methyl-2,5-dioxo-imidazolidin-1-yl)-ethoxy]-benzyl}-amino)-methyl]-cyclohexanecarboxylic acid]: the IC50 worked out at 71 nM. For `CCC(c1ccc(Cl)cc1)N(Cc1ccc(OCCN2C(=O)CN(C)C2=O)c(OC)c1)C[C@H]1CC[C@H](C(=O)O)CC1` (stereo partly drawn) [Example 67, trans-4-[([1-(4-Chloro-phenyl)-propyl]-{3-methoxy-4-[2-(3-methyl-2,5-dioxo-imidazolidin-1-yl)-ethoxy]-benzyl}-amino)-methyl]-cyclohexanecarboxylic acid], the IC50 is 77 nM. As for `C[C@@H](c1ccc(Cl)cc1)N(Cc1ccc(OCCN2C(=O)CCC2=O)cc1)C[C@H]1CC[C@H](C(=O)O)CC1` [Example 79, trans-4-[([(S)-1-(4-Chloro-phenyl)-ethyl]-{4-[2-(2,5-dioxo-pyrrolidin-1-yl)-ethoxy]-benzyl}-amino)-methyl]-cyclohexanecarboxylic acid], the IC50 amounted to 154 nM. In the case of `Cc1cc(CN(C[C@H]2CC[C@H](C(=O)O)CC2)C(C)c2ccc3c(c2)CCO3)ccc1OCCN1C(=O)CSC1=O` (stereo partly drawn) [Example 33, trans-4-[([1-(2,3-Dihydro-benzofuran-5-yl)-ethyl]-{4-[2-(2,4-dioxo-thiazolidin-3-yl)-ethoxy]-3-methyl-benzyl}-amino)-methyl]-cyclohexanecarboxylic acid], the IC50 amounted to 42 nM. For `Cc1cc(CN(C[C@H]2CC[C@H](C(=O)O)CC2)[C@@H]2CCc3cc(Cl)ccc32)ccc1OCCN1C(=O)CCC1=O` [Example 31, trans-4-[(((R)-5-Chloro-indan-1-yl)-{4-[2-(2,5-dioxo-pyrrolidin-1-yl)-ethoxy]-3-methyl-benzyl}-amino)-methyl]-cyclohexanecarboxylic acid] the value was 360 nM. For `COc1cc(CN(C[C@H]2CC[C@H](C(=O)O)CC2)[C@@H](C)c2ccc(Cl)cc2)ccc1OCCN1C(=O)CSC1=O` [Example 34, trans-4-[([(S)-1-(4-Chloro-phenyl)-ethyl]-{4-[2-(2,4-dioxo-thiazolidin-3-yl)-ethoxy]-3-methoxy-benzyl}-amino)-methyl]-cyclohexanecarboxylic acid] the value was 22 nM.

Regarding `COc1cc(CN(C[C@H]2CC[C@H](C(=O)O)C2)[C@@H](C)c2ccc(Cl)cc2)ccc1OCCN1C(=O)CCC1=O` [Example 100, (1S,3S)-3-[([(S)-1-(4-Chloro-phenyl)-ethyl]-{4-[2-(2,5-dioxo-pyrrolidin-1-yl)-ethoxy]-3-methoxy-benzyl}-amino)-methyl]-cyclopentanecarboxylic acid], the IC50 amounted to 108 nM. For `CC(c1ccc2c(c1)CCO2)N(Cc1ccc(OCCN2C(=O)CN(C)C2=O)c(Cl)c1)C[C@H]1CC[C@H](C(=O)O)CC1` (stereo partly drawn) [Example 22, trans-4-({{3-Chloro-4-[2-(3-methyl-2,5-dioxo-imidazolidin-1-yl)-ethoxy]-benzyl}-[1-(2,3-dihydro-benzofuran-5-yl)-ethyl]-amino}-methyl)-cyclohexanecarboxylic acid], the IC50 worked out at 112 nM.

With `C[C@@H](c1ccc(Cl)cc1)N(Cc1ccc(OCCN2C(=O)CCC2=O)c(CO)c1)C[C@H]1CC[C@H](C(=O)O)CC1` [Example 85, trans-4-[([(S)-1-(4-Chloro-phenyl)-ethyl]-{4-[2-(2,5-dioxo-pyrrolidin-1-yl)-ethoxy]-3-hydroxymethyl-benzyl}-amino)-methyl]-cyclohexanecarboxylic acid], the IC50 was 71 nM. In the case of `COc1cc(CN(C[C@H]2CC[C@@H](C(=O)O)C2)[C@@H](C)c2ccc3c(c2)CCO3)ccc1OCCN1C(=O)CCC1=O` [Example 107, (1R,3S)-3-[([(S)-1-(2,3-Dihydro-benzofuran-5-yl)-ethyl]-{4-[2-(2,5-dioxo-pyrrolidin-1-yl)-ethoxy]-3-methoxy-benzyl}-amino)-methyl]-cyclopentanecarboxylic acid], the IC50 was 5130 nM. Turning to `Cc1cc(CN(C[C@H]2CC[C@H](C(=O)O)CC2)C(C)c2ccc(C#N)cc2)ccc1OCCN1C(=O)CCC1=O` (stereo partly drawn) [Example 61, trans-4-[([1-(4-Cyano-phenyl)-ethyl]-{4-[2-(2,5-dioxo-pyrrolidin-1-yl)-ethoxy]-3-methyl-benzyl}-amino)-methyl]-cyclohexanecarboxylic acid], the IC50 is 102 nM. `COc1cc(CN([C@H]2C[C@@H](C(=O)O)C2)[C@H](C)c2ccc3c(c2)CCC3)ccc1OCCn1c(=O)ccn(C)c1=O` [Example 159, cis-3-(((R)-1-Indan-5-yl-ethyl)-{3-methoxy-4-[2-(3-methyl-2,6-dioxo-3,6-dihydro-2H-pyrimidin-1-yl)-ethoxy]-benzyl}-amino)-cyclobutanecarboxylic acid]: the IC50 was found to be 544 nM. For `COc1cc(CN(C[C@H]2CC[C@H](C(=O)O)CC2)C2CCc3cc(Cl)ccc32)ccc1CCCN1C(=O)CCC1=O` (stereo in doubt) [Example 45, trans-4-[(((R)-5-Chloro-indan-1-yl)-{4-[3-(2,5-dioxo-pyrrolidin-1-yl)-propyl]-3-methoxy-benzyl}-amino)-methyl]-cyclohexanecarboxylic acid] the value was 160 nM; for `O=C1CCC(=O)N1CCOc1ccc(CN(C[C@H]2CC[C@H](C(=O)O)CC2)C2CCc3cc(Cl)ccc32)cc1Cl` (stereo partly drawn) [Example 21, trans-4-{[{3-Chloro-4-[2-(2,5-dioxo-pyrrolidin-1-yl)-ethoxy]-benzyl}-(5-chloro-indan-1-yl)-amino]-methyl}-cyclohexanecarboxylic acid], 633 nM; for `CCc1cc(CN(C(C)c2ccc(Cl)c(Cl)c2)[C@H]2C[C@@H](C(=O)O)C2)ccc1OCCN1C(=O)CCC1=O` (stereo partly drawn) [Example 139, cis-3-([1-(3,4-Dichloro-phenyl)-ethyl]-{4-[2-(2,5-dioxo-pyrrolidin-1-yl)-ethoxy]-3-ethyl-benzyl}-amino)-cyclobutanecarboxylic acid], 1200 nM.
